Reference: article PMC11460631, “Inhibition of transient receptor potential vanilloid 3 channels by antimalarial hydroxychloroquine alleviates TRPV3-dependent dermatitis” (The Journal of Biological Chemistry, 2024)

Molecular target: T1, TRPV3 I637 alanine mutation (Homo sapiens, UniProt Q8NET8, I637A)
T1 construct: YFP or GFP; expressed in transfected cells; host or cells: HEK293T
T1 sequence (Q8NET8 1-790 I637A): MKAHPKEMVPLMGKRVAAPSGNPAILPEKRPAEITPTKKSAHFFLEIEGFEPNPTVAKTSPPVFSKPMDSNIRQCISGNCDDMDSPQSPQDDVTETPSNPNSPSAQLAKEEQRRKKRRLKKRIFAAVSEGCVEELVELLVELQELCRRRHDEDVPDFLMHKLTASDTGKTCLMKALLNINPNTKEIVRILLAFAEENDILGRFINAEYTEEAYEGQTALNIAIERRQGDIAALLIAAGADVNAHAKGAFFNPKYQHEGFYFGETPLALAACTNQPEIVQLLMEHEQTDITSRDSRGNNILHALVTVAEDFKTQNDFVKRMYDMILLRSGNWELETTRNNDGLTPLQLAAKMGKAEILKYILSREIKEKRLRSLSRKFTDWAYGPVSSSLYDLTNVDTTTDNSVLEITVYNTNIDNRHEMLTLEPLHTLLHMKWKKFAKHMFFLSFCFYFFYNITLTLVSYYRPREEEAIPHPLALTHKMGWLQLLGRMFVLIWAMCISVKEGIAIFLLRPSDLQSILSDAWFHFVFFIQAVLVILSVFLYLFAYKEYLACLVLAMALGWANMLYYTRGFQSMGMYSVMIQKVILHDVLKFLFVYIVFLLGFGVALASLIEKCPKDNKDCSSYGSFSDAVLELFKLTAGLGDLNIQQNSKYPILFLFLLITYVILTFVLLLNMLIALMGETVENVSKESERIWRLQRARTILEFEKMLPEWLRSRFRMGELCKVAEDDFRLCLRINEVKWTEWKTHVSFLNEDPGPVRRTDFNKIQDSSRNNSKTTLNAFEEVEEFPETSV
Assay: Whole-cell recording of TRPV3 I637 alanine mutant
Type: cell-based
Conditions: 1 mM 2-APB, ± 80 mV
Source text: As we mentioned above, HCQ may act as a pore blocker of TRPV3. To probe the binding configuration of HCQ to TRPV3, we carried out molecular docking using Rosetta suite (https://rosettacommons.org) ([21]) and validated the docking models with point mutations in TRPV3 (Fig. 4A). […] Furthermore, when we introduced L670A to L591A mutant, we also observed a left shift on the concentration–response curve on this double mutant as compared to L591A mutant (Fig. 4H).
Figure 4 Residues of the pore domain are critical for HCQ inhibition on TRPV3.A, left panel, docking model of HCQ to the pore domain of TRPV3 structure (6uw4). Right panels, top view and side view of the HCQ-binding pocket. B-J, representative whole-cell recording of TRPV3 and mutants in response to 1 mM 2-APB, the mixture of 1 mM 2-APB and concentration gradients of HCQ with the holding potential of ± 80 mV. K, concentration–response curves of HCQ in WT TRPV3 and mutants (n = 3–5 cells). L, quantification of the inhibitory ratio of HCQ (100 μM) on WT, L591A, and N671Q. […]
All data from whole-cell recordings were analyzed in Igor Pro (WaveMetrics). IC50 values were determined by fitting the Hill equation to concentration-response relationships. […]

## CCN(CCO)CCCC(C)Nc1ccnc2cc(Cl)ccc12 (stereo not shown) [HCQ, hydroxychloroquine]
  IC50: 140 ± 20 nM
